System: Daudi human lymphoma cells
Assay: Cytotoxicity for lymphoma cells (Daudi)
Assay type: cell-based
Settings: Homo sapiens, Daudi, 150 μg/ml, time not stated; read-out: cell kill
Description: In the following examples, tumor cells were treated with varying concentrations of compounds C1, C2, C4 or C5 dissolved in absolute ethanol. To limit any non-specific toxicity, the final concentration of ethanol was not allowed to exceed 0.5%. Stock concentrations of 5 mg/ml or 20 mg/ml were used. Viability of cells was determined in some studies by the trypan blue dye exclusion method. In other studies, cell viability/proliferation activity was determined by MTT assay by using a kit obtained from Promega, (Promega Corp., Madison, Wis. 53711). For this assay, a 100 μl cell suspension containing 5-10^3 monolayer cells or 1×10^5 suspension cells was placed in the wells of a 96-well microtiter plate. After overnight incubation, cells were treated with different concentrations of the test compound. Control wells received vehicle only. After 24, 48, 72 or 96 h of incubation, 50 μl of MTT dye solution was added. After 4 h of incubation at 37° C., 100 μl of solubilization/stop solution was added. After another h of incubation, cells were mixed using a multi-channel pipet and the absorption of the dye color was recorded at 570 nm using a plate reading absorption spectrophotometer.
The viability of the cells was
Compounds C4 and C5 were also tested for toxicity against human lymphoma Daudi cells.

| Structure (SMILES) | cytotoxicity at 150 µg/mL |
| --- | --- |
| O=C1CC(=O)NC(=S)N1 [Compound C4] | < 20% |
| CN1C(=O)CC(=O)N(C)C1=S [Compound C5] | < 20% |
